Data reported in ChEMBL document CHEMBL3301361, “Experimental in vitro DMPK and physicochemical data on a set of publicly disclosed compounds”.
Values after ≈ are worked out from the molar mass of the structure shown. Values joined by “and” are separate entries in the source; they are usually repeats but may differ in a detail not shown here. Equal entries are not always repeated.

Tests used:
physchem [1] = assay: physchem
in vitro [2] = details: hepatocytes
physchem [3] = details: pH 7.4 buffer
in vitro [4] = details: human
in vitro [5] = details: human, hepatocytes
[6] = buffer, pH 7.4
physchem [7] = assay: physchem; remark: listed apart in the source
physchem [8] = assay: physchem; remark: listed apart in the source
in vitro [9] = details: human, plasma
in vitro [10] = details: SD, HW or BN, rat, plasma
in vitro [11] = details: Beagle, dog, plasma
physchem [12] = details: octan-1-ol/water
in vitro [13] = details: mouse, plasma
physchem [14] = assay: physchem; remark: listed apart in the source
in vitro [15] = details: Dunkin Hartley, guinea pig, plasma

CC/C(=C(/c1ccc(O)cc1)c1ccc(/C=C/C(=O)O)cc1)c1ccccc1
pKa (physchem [1]): 9.55 | hepatocyte CLint (in vitro [2]): 69.2 µL/min/1e6 cells | solubility thermodynamic (physchem [3]): 1 µM (≈ 0.37 µg/mL) | microsomal CLint (in vitro [4]; liver microsomes): 33.9 µL/min/mg | hepatocyte CLint (in vitro [5]): 55 µL/min/1e6 cells

CCCc1c2nc(C(=O)O)cc(Cl)c2cc2c(=O)cc(C(=O)O)oc12
pKa (physchem [1]): 3.7

CCN(CC)c1ccc(-c2nn3c(-c4n[nH]c5c4CCC5)nnc3s2)cc1
LogD7.4 [6]: 3.37

CON=C(C(=O)N[C@@H]1C(=O)N2C(C(=O)O)=C(COC(C)=O)CS[C@H]12)c1csc(N)n1
pKa (physchem [1]): 9.43 | pKa (physchem [7]): 3.35 | pKa (physchem [8]): 2

O=C(O)c1cc(=O)c2ccc(O)cc2o1
pKa (physchem [1]): 7.3 | pKa (physchem [7]): < 2

CS(=O)(=O)c1ccc(-c2cc(C(F)(F)F)ccc2OCC(=O)O)cc1
LogD7.4 [6]: -0.87 | microsomal CLint (in vitro [4]; liver microsomes): < 3 µL/min/mg

CCS(=O)(=O)c1cccc(-c2cc(C(F)(F)F)ccc2OCC(=O)O)c1
LogD7.4 [6]: -0.66

Cc1cc(N(C)S(C)(=O)=O)ccc1-c1cc(C(F)(F)F)ccc1OCC(=O)O
LogD7.4 [6]: -0.59 | microsomal CLint (in vitro [4]; liver microsomes): < 3 µL/min/mg

CN(c1ccc(-c2cc(F)ccc2OCC(=O)O)c(Cl)c1)S(C)(=O)=O
LogD7.4 [6]: -1.17

CS(=O)(=O)c1ccc(-c2cc(C(F)(F)F)ccc2OCC(=O)O)c(Cl)c1
fraction unbound at 5 h (in vitro [9]; PPB): 0.0418 | LogD7.4 [6]: -0.52 | fraction unbound at 5 h (in vitro [10]): 0.0499

CCS(=O)(=O)c1ccc(-c2cc(Cl)ccc2OCC(=O)O)cc1
fraction unbound at 5 h (in vitro [9]; PPB): 0.0274 | LogD7.4 [6]: -0.78 | microsomal CLint (in vitro [4]; liver microsomes): < 3 µL/min/mg

CS(=O)(=O)c1ccc(-c2cc(Cl)ccc2OCC(=O)O)c(Cl)c1
fraction unbound at 5 h (in vitro [9]; PPB): 0.0251 | LogD7.4 [6]: -0.75 | fraction unbound at 5 h (in vitro [10]): 0.035

CCS(=O)(=O)c1ccc(-c2cc(Cl)ccc2OCC(=O)O)c(F)c1
fraction unbound at 5 h (in vitro [11]): 0.0084 | fraction unbound at 5 h (in vitro [9]; PPB): 0.0488 | hepatocyte CLint (in vitro [2]): 4.24 µL/min/1e6 cells | pKa (physchem [7]): 3 | LogD7.4 [6]: -0.92 | microsomal CLint (in vitro [4]; microsomes): < 3 µL/min/mg | hepatocyte CLint (in vitro [5]): < 3 µL/min/1e6 cells | fraction unbound at 5 h (in vitro [10]): 0.0568

CCS(=O)(=O)c1ccc(-c2cc(Cl)ccc2OCC(=O)O)c(C)c1
LogD7.4 [6]: -0.65

Cc1c(Sc2ccc(Cl)cc2)c2c(NS(C)(=O)=O)cccc2n1CC(=O)O
pKa (physchem [1]): 10.2 | logD (physchem [12]; pH 7.4, LogD7.4): 0.21 | fraction unbound at 5 h (in vitro [9]; PPB): 0.0104 | hepatocyte CLint (in vitro [2]): 5 µL/min/1e6 cells | pKa (physchem [7]): 2.9 | hepatocyte CLint (in vitro [5]): 4.76 µL/min/1e6 cells | fraction unbound at 5 h (in vitro [10]): 0.0031

Cc1c(S(=O)(=O)c2ccc(Cl)cc2)c2c(NS(C)(=O)=O)cccc2n1CC(=O)O
pKa (physchem [1]): 9.8 | logD (physchem [12]; pH 7.4, LogD7.4): -0.83 | pKa (physchem [7]): 2.8

O=c1[nH]c2c(O)ccc([C@@H](O)CNCCc3cccc(CN4CCCC4)c3)c2s1
LogD7.4 [6]: -0.28

O=C(O)c1cc(O)cc(Cl)c1
pKa (physchem [1]): 8.57 | pKa (physchem [7]): 3.81

N#Cc1ccc(C[C@@H](C(=O)O)N2CCC(CN3CCC(Oc4ccc(Cl)c(Cl)c4)CC3)CC2)cc1
fraction unbound at 5 h (in vitro [11]): 0.166 | fraction unbound at 5 h (in vitro [9]; PPB): 0.0521 | solubility thermodynamic (physchem [3]): 53.7 µM (≈ 27.7 µg/mL) | pKa (physchem [8]): 8.9 | fraction unbound at 5 h (in vitro [10]): 0.0968 | fraction unbound at 5 h (in vitro [13]): 0.197 | pKa (physchem [14]): 7

O=C(O)C(c1ccccc1)N1CCC(CN2CCC(Oc3ccc(Cl)c(Cl)c3)CC2)CC1 (configuration not stated)
logD (physchem [12]; pH 7.4, LogD7.4): 2.17 | pKa (physchem [7]): 3 | pKa (physchem [8]): 9.6 | microsomal CLint (in vitro [4]; microsomes): < 3 µL/min/mg | pKa (physchem [14]): 7.7

O=C(O)c1ccccc1N1CCC(CN2CCC(Oc3ccc(Cl)c(Cl)c3)CC2)CC1
pKa (physchem [7]): 3.2 | pKa (physchem [8]): 8.9 | microsomal CLint (in vitro [4]; liver microsomes): 8 µL/min/mg | pKa (physchem [14]): 7.7

O=C(O)c1cccc(CN2CCC(CN3CCC(Oc4ccc(Cl)c(Cl)c4)CC3)CC2)c1
pKa (physchem [7]): 3.5 | pKa (physchem [8]): 9.6 | microsomal CLint (in vitro [4]; microsomes): < 3 µL/min/mg | pKa (physchem [14]): 7.7

O=C(O)[C@H](Cc1ccccc1)N1CCC(CN2CCC(Oc3ccc(Cl)c(Cl)c3)CC2)CC1
fraction unbound at 5 h (in vitro [11]): 0.11 | pKa (physchem [7]): 3.1 | solubility thermodynamic (physchem [3]): 13.5 µM (≈ 6.63 µg/mL) | pKa (physchem [8]): 9.25 | microsomal CLint (in vitro [4]; liver microsomes): < 3 µL/min/mg | fraction unbound at 5 h (in vitro [15]): 0.58 | fraction unbound at 5 h (in vitro [10]): 0.183 | fraction unbound at 5 h (in vitro [13]): 0.154 | pKa (physchem [14]): 7.75

NCCc1ccc(O)c2nc(O)ccc12
pKa (physchem [1]): 10.2 | pKa (physchem [7]): 7.6 | pKa (physchem [8]): 7.7

O=C(O)CCCCCCCC(=O)O [AZELAIC ACID]
pKa (physchem [1]): 5.87 | pKa (physchem [7]): 3.49

CO[C@@]1(NC(=O)CSCC#N)C(=O)N2C(C(=O)O)=C(CSc3nnnn3C)CS[C@@H]21 [CEFMETAZOLE]
pKa (physchem [1]): 10.2 | fraction unbound at 5 h (in vitro [9]; PPB): 0.194 | pKa (physchem [7]): 3.37

CN(C)CCn1nnnc1SCC1=C(C(=O)O)N2C(=O)[C@@H](NC(=O)Cc3csc(N)n3)[C@H]2SC1 [CEFOTIAM]
pKa (physchem [7]): 2.41 | pKa (physchem [8]): 8.18 | pKa (physchem [14]): 4.61

COc1cc(N)c(Cl)cc1C(=O)NC1CCN(CCCOc2ccc(F)cc2)CC1OC (configuration not stated) [CISAPRIDE]
LogD7.4 [6]: 3.56

CN1CCC[C@@H]1CCO[C@](C)(c1ccccc1)c1ccc(Cl)cc1 [CLEMASTINE]
logD (physchem [12]; pH 7.4, LogD7.4): 3.04 | LogD7.4 [6]: 3.48

CC(C)/N=c1\cc2n(-c3ccc(Cl)cc3)c3ccccc3nc-2cc1Nc1ccc(Cl)cc1 [CLOFAZIMINE]
LogD7.4 [6]: 3.17 | solubility thermodynamic (physchem [3]): 0.7 µM (≈ 0.331 µg/mL) | pKa (physchem [8]): 8.8 | fraction unbound at 5 h (in vitro [10]): 0.0037

CN1CCN(C2=Nc3cc(Cl)ccc3Nc3ccccc32)CC1 [CLOZAPINE]
logD (physchem [12]; pH 7.4): 3.08 | fraction unbound at 5 h (in vitro [11]): 0.0736 | fraction unbound at 5 h (in vitro [9]): 0.0521 | fraction unbound at 5 h (in vitro [15]): 0.0872 | fraction unbound at 5 h (in vitro [10]): 0.0647 | pKa (physchem [14]): 3.99

O=C(O)c1cc(=O)c2c(OCC(O)COc3cccc4oc(C(=O)O)cc(=O)c34)cccc2o1 [CROMOLYN]
pKa (physchem [1]): < 2 | pKa (physchem [7]): < 2

COc1cc2ncnc(Nc3ccc(F)c(Cl)c3)c2cc1NC(=O)/C=C/CN1CCCCC1 [DACOMITINIB ANHYDROUS]
logD (physchem [12]; pH 7.4, LogD7.4): 4.1 | fraction unbound at 5 h (in vitro [9]; PPB): 0.0179 | hepatocyte CLint (in vitro [2]): 9.77 µL/min/1e6 cells | solubility thermodynamic (physchem [3]): 6.8 µM (≈ 3.2 µg/mL) | pKa (physchem [8]): 9.36 | hepatocyte CLint (in vitro [5]): < 3 µL/min/1e6 cells | pKa (physchem [14]): 5.2

Clc1ccc2c(c1)CCc1cccnc1C2=C1CCNCC1 [DESLORATADINE]
logD (physchem [12]; pH 7.4): 1.48 | hepatocyte CLint (in vitro [2]): 26.9 µL/min/1e6 cells | pKa (physchem [8]): 10 | fraction unbound at 5 h (in vitro [10]): 0.145 | fraction unbound at 5 h (in vitro [13]): 0.183 | pKa (physchem [14]): 4.57

O=c1c2ccccc2[se]n1-c1ccccc1 [EBSELEN]
LogD7.4 [6]: 3.31

Clc1ccc(COC(Cn2ccnc2)c2ccc(Cl)cc2Cl)cc1 (configuration not stated) [ECONAZOLE]
LogD7.4 [6]: 2.54

CC(CCc1ccccc1)NCC(O)c1ccc(O)c(C(N)=O)c1 (configuration not stated) [LABETALOL]
fraction unbound at 5 h (in vitro [9]; PPB): 0.376 | LogD7.4 [6]: 1.06

CCOC(=O)C1(c2ccccc2)CCN(C)CC1 [MEPERIDINE]
LogD7.4 [6]: 1.4

CCCc1c2oc(C(=O)O)cc(=O)c2cc2c(=O)cc(C(=O)O)n(CC)c12 [NEDOCROMIL]
pKa (physchem [1]): < 2 | pKa (physchem [7]): < 2

CC1(C)NC(=O)N(c2ccc([N+](=O)[O-])c(C(F)(F)F)c2)C1=O [NILUTAMIDE]
LogD7.4 [6]: 1.74 | solubility thermodynamic (physchem [3]): 234 µM (≈ 74.4 µg/mL)

CN1Cc2c(N)cccc2C(c2ccccc2)C1 (configuration not stated) [NOMIFENSINE]
logD (physchem [12]; pH 7.4, LogD7.4): 2.08 | LogD7.4 [6]: 2.11

NC(=O)N1c2ccccc2CC(=O)c2ccccc21 [OXCARBAZEPINE]
LogD7.4 [6]: 1.28

CN1CCN(CCCN2c3ccccc3Sc3ccc(Cl)cc32)CC1 [PROCHLORPERAZINE]
LogD7.4 [6]: 3.92

O=C(NO)c1ccccc1O [SALICYLHYDROXAMIC ACID]
pKa (physchem [1]): 9.9 | pKa (physchem [7]): 7.5 | microsomal CLint (in vitro [4]; liver microsomes): < 3 µL/min/mg

CC(C)(C)NC[C@H](O)COc1nsnc1N1CCOCC1 [TIMOLOL]
fraction unbound at 5 h (in vitro [9]; PPB): 0.597 | hepatocyte CLint (in vitro [2]): > 150 µL/min/1e6 cells | LogD7.4 [6]: -0.35 and -0.22 | hepatocyte CLint (in vitro [5]): 4.57 µL/min/1e6 cells

CN1CCN(CCCN2c3ccccc3Sc3ccc(C(F)(F)F)cc32)CC1 [TRIFLUOPERAZINE]
fraction unbound at 5 h (in vitro [9]; PPB): 0.0081 | LogD7.4 [6]: 4.31 | fraction unbound at 5 h (in vitro [10]): 0.007

CC(CN(C)C)CN1c2ccccc2CCc2ccccc21 (configuration not stated) [TRIMIPRAMINE]
fraction unbound at 5 h (in vitro [9]; PPB): 0.069 | LogD7.4 [6]: 2.95
